Where a name gives a salt, the structure may show the parent alone. Read-outs that look alike come from different tables or passages of the source.
What was measured:
[1] = biological target: T1, human serotonin transporter (SERT) (Homo sapiens, UniProt P31645); test: Scintillation Proximity Assay (SPA) competition binding, [3H]citalopram, hSERT-CHO membranes
T1 construct: expressed in transfected cells; host or cells: CHO (hSERT-CHO), membrane preparation

[2] = biological target: T2, human norepinephrine transporter (NET) (Homo sapiens, UniProt P23975); test: Scintillation Proximity Assay (SPA) competition binding, [3H]nisoxetine, hNET-CHO membranes
T2 construct: expressed in transfected cells; host or cells: CHO (hNET-CHO), membrane preparation

[3] = biological target: T3, human dopamine transporter (DAT) (Homo sapiens, UniProt Q01959); test: Scintillation Proximity Assay (SPA) competition binding, [3H]WIN-35,428, hDAT-CHO membranes
T3 construct: expressed in transfected cells; host or cells: CHO (hDAT-CHO), membrane preparation

[4] = biological target: human ERG potassium channel (hERG) (Homo sapiens, UniProt Q12809); test: cell-based
Experimental: Measure of the Effect on hERG Channel by Tail Current Recording Using In Vitro Rapid ICE™
The potency of the compounds of the invention in inhibiting human ERG potassium channel (hERG) tail current is assessed in a recombinant HEK293 cell line stably transfected with hERG cDNA using Rapid ICE™ (Rapid Ion Channel Electrophysiology) assay. Rapid ICE™ is an automated patch-clamp assay utilizing the PatchXpress 7000A system (Molecular Devices Corporation) or the QPatch HTX system (Sophion Bioscience A/S).
Briefly cells are cultivated for 24 to 72 hours before recordings in minimum essential medium supplemented with 10% FBS, 1% non-essential amino acids, 1% sodium pyruvate, 2 mM L-glutamine. The day of the experiment cells are detached with TrypLE and prepared to be loaded on the instrument. For PatchXpress cells are finally resuspended in 150 μl of Extracellular Buffer whereas for QPatch cells are resuspended in 7 ml Serum-Free Media containing 25 mM Hepes and Soybean trypsin inhibitor and immediately placed in the cell storage tank of the machine. The composition of the Extracellular Buffer is (mM): NaCl 137; KCl 4; CaCl2 1.8; MgCl2 1.0; D-glucose 10; N 2 hydroxyethylpiperazine-N′-2-ethanesulfonic acid (HEPES) 10; pH 7.4 with 1 M NaOH. The composition of the pipette solution is (mM): KCl 130; MgCl2 1.0; Ethylene glycol-bis(R-aminoethyl ether)-N,N,N′,N′-tetraacetic acid (EGTA) 5; MgATP 5; HEPES 10; pH 7.2 with 1 M KOH. The voltage protocol includes the following steps: step from −80 mV to −50 mV for 200 ms, +20 mV for 4.8 s, step to −50 mV for 5 s then step to the holding potential of −80 mV. Compounds of the invention are dissolved in DMSO and diluted in Extracellular Buffer to achieve final test concentrations (0.1, 1 and 10 μM) in 0.1% DMSO. The voltage protocol is run and recorded continuously during the experiment. The vehicle, corresponding to 0.1% DMSO in Extracellular Buffer, is then applied for 3 min followed by the test substance in triplicate. The standard combined exposure time is 5 min. The average of tail current amplitude values recorded from 4 sequential voltage pulses is used to calculate for each cell the effect of the test substance by calculating the residual current (% control) compared with vehicle pre-treatment. Data are reported as % inhibition for each concentration tested and IC50 values are estimated using DataXpress or QPatch software. At least two cells are tested, more if results diverge.

[5] = read-out: pIC50 DAT (converted)
[6] = hERG tail current, HEK293 cells, read-out: pIC50 hERG (converted)

T1 sequence (P31645 whole entry): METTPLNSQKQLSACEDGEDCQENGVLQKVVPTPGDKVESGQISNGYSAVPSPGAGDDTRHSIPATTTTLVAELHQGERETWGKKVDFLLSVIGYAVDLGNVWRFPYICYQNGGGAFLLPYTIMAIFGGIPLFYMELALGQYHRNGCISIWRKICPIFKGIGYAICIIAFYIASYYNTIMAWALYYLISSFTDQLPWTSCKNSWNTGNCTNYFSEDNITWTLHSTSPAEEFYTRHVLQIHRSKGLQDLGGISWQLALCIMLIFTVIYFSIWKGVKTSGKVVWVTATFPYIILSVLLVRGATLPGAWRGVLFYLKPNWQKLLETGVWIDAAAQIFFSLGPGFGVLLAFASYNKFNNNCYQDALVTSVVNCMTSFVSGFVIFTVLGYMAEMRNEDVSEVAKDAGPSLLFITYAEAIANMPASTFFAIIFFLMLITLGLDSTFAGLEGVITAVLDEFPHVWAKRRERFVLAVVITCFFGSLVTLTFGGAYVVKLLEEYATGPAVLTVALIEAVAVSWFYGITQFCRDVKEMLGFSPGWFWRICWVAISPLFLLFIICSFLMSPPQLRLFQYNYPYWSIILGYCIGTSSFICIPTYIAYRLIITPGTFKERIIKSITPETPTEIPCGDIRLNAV
T2 sequence (P23975 whole entry): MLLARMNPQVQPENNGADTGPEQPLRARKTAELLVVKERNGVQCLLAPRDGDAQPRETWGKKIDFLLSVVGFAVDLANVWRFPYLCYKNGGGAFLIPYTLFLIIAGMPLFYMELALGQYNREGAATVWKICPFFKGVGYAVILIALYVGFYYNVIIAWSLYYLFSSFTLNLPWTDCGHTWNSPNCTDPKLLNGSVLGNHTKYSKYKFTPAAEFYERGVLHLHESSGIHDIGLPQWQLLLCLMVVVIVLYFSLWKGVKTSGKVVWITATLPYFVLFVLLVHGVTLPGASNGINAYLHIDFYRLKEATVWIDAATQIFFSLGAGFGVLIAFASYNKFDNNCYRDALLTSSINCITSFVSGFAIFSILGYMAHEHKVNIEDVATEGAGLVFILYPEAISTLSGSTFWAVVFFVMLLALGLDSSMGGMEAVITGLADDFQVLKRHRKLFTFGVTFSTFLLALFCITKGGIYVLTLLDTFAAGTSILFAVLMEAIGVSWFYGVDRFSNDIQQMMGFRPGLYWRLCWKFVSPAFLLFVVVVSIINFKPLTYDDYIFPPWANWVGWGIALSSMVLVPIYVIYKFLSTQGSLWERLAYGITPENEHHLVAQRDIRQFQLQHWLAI
T3 sequence (Q01959 whole entry): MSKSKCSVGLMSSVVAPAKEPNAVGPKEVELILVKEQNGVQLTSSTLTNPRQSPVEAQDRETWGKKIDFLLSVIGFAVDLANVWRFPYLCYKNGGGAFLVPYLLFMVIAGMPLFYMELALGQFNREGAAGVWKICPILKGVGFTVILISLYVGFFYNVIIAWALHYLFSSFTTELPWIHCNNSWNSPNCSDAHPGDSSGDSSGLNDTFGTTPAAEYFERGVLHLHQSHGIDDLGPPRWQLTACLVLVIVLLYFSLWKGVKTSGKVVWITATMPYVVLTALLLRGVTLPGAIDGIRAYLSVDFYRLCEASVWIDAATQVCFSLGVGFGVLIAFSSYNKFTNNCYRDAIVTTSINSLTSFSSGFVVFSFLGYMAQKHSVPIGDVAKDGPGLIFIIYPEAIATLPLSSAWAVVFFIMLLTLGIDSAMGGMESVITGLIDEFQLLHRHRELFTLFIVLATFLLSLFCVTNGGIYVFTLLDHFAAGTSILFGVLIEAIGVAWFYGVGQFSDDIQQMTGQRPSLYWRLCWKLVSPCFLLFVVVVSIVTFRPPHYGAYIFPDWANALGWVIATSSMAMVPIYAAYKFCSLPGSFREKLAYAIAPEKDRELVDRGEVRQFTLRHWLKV
Sequence of human ERG potassium channel (hERG) (Q12809 whole entry): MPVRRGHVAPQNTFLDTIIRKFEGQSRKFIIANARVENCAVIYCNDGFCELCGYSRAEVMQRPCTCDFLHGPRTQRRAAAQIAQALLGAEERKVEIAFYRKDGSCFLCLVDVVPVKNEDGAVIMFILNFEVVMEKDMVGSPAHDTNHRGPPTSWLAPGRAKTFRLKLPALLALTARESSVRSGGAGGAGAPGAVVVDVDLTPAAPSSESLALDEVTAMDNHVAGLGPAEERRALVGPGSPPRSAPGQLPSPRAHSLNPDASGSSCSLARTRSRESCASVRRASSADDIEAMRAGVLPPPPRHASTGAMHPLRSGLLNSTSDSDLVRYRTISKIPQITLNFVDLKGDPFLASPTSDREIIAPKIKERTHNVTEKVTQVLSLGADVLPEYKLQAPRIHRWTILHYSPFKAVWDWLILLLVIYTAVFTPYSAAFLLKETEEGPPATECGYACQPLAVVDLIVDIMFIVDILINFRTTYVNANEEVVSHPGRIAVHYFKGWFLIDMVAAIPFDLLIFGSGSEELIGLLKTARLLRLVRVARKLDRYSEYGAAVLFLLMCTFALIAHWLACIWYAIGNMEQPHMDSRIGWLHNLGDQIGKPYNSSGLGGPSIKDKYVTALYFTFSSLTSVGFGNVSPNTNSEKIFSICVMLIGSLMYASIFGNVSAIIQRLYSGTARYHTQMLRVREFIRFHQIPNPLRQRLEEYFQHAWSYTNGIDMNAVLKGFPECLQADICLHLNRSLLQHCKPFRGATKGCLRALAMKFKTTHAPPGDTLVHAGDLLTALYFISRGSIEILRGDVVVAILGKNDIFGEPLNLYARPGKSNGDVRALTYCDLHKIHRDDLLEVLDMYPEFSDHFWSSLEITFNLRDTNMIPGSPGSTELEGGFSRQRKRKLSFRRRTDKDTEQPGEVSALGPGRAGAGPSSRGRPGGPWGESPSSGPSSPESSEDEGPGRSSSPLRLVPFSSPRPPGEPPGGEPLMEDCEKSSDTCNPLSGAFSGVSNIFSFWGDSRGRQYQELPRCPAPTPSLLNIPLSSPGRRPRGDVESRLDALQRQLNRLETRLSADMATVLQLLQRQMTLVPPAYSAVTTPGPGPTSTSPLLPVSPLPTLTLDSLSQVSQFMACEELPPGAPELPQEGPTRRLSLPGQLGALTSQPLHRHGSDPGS

IC50 [1] | IC50 [2] | IC50 [3, 5] | Structure (SMILES) | IC50 [4, 6] | IC50 [4] | IC50 ([3]; pIC50 DAT)
7.41 µM | 3.24 µM | 0.145 µM | COC1CCNCC12CCN(C(c1ccc(F)cc1)c1ccc(F)cc1)C2 (mixture of isomers) [Example 5, 2-[bis(4-fluorophenyl)methyl]-10-methoxy-2,7-diazaspiro[4.5]decane] |  |  | 
12.9 µM | 3.55 µM | 0.224 µM | O[C@@H]1CCNC[C@]12CCN(C(c1ccc(F)cc1)c1ccc(F)cc1)C2 (single isomer, unassigned) [Example 11, 2-[bis(4-fluorophenyl)methyl]-2,7-diazaspiro[4.5]decan-10-ol] |  |  | 
17 µM | 7.94 µM | 0.302 µM | O[C@@H]1CCNC[C@]12CCN(C(c1ccc(F)cc1)c1ccc(F)cc1)C2 (single isomer, unassigned) [Example 12, 2-[bis(4-fluorophenyl)methyl]-2,7-diazaspiro[4.5]decan-10-ol] |  |  | 
19.5 µM | 4.27 µM | 0.174 µM | O[C@@H]1CCNC[C@@]12CCN(C(c1ccc(F)cc1)c1ccc(F)cc1)C2 (single isomer, unassigned) [Example 13, 2-[bis(4-fluorophenyl)methyl]-2,7-diazaspiro[4.5]decan-10-ol] |  |  | 
22.4 µM | 1.74 µM | 0.2 µM | O[C@@H]1CCNC[C@@]12CCN(C(c1ccc(F)cc1)c1ccc(F)cc1)C2 (single isomer, unassigned) [Example 14, 2-[bis(4-fluorophenyl)methyl]-2,7-diazaspiro[4.5]decan-10-ol] |  |  | 
4.79 µM | 2 µM | 0.204 µM | CO/N=C1\CCNC[C@]12CCN(C(c1ccc(F)cc1)c1ccc(F)cc1)C2 (single isomer, unassigned) [Example 15, (5S or 5R,10E)-2-[bis(4-fluorophenyl)methyl]-N-methoxy-2,7-diazaspiro[4.5]decan-10-imine] |  |  | 
3.39 µM | 4.47 µM | 0.309 µM | Fc1ccc(C(c2ccc(F)cc2)N2CCC3(CNCCC34OCCO4)C2)cc1 (stereo not shown) [Example 6, 8-[bis(4-fluorophenyl)methyl]-1,4-dioxa-8,12-diazadispiro[4.0.4^6.4^5]tetradecane] |  |  | 
1.78 µM | 3.31 µM | 0.204 µM | O=C1CCNCC12CCN(C(c1ccc(Cl)cc1)c1ccc(Cl)cc1)C2 (stereo not shown) [Example 19, 2-[bis(4-chlorophenyl)methyl]-2,7-diazaspiro[4.5]decan-10-one] |  |  | 
6.76 µM | 6.03 µM | 0.186 µM | OC1CNCCC12CCN(C(c1ccc(F)cc1)c1ccc(F)cc1)C2 (stereo not shown) [Example 21, 2-[bis(4-fluorophenyl)methyl]-2,8-diazaspiro[4.5]decan-6-ol] |  |  | 
6.46 µM | 5.75 µM | 0.11 µM | Fc1ccc(C(c2ccc(F)cc2)N2CCC3(CCCNC3)C2)cc1 (stereo not shown) [Example 22, 2-[bis(4-fluorophenyl)methyl]-2,7-diazaspiro[4.5]decane] |  |  | 
4.27 µM | 5.01 µM | 0.115 µM | CN1CCCC2(CCN(C(c3ccc(F)cc3)c3ccc(F)cc3)C2)C1 (stereo not shown) [Example 23, 2-[bis(4-fluorophenyl)methyl]-7-methyl-2,7-diazaspiro[4.5]decane] |  |  | 
11 µM | 0.295 µM | 0.537 µM | Fc1ccc(C(c2ccc(F)cc2)N2CCCC3(CCNC3)C2)cc1 (stereo not shown) [Example 24, 7-[bis(4-fluorophenyl)methyl]-2,7-diazaspiro[4.5]decane] |  |  | 
1.58 µM | 2.4 µM | 0.363 µM | Fc1ccc(C(c2ccc(F)cc2)N2CCCC3(CCNCC3)C2)cc1 [Example 25, 2-[bis(4-fluorophenyl)methyl]-2,9-diazaspiro[5.5]undecane] |  |  | 
5.25 µM | 2 µM | 0.135 µM | Fc1ccc(C(c2ccc(F)cc2)N2CCC3(CCCNC3)CC2)cc1 [Example 26, 9-[bis(4-fluorophenyl)methyl]-2,9-diazaspiro[5.5]undecane] |  |  | 
0.676 µM | 1.23 µM | 0.316 µM | Clc1ccc(C(c2ccc(Cl)cc2)N2CCC3(CCNCC3)C2)cc1 [Example 28, 2-[bis(4-chlorophenyl)methyl]-2,8-diazaspiro[4.5]decane] |  |  | 
0.912 µM | 2.4 µM | 0.151 µM | Clc1ccc(C(c2ccc(Cl)cc2)N2CCC3(CNCCO3)C2)cc1 (stereo not shown) [Example 30, 2-[bis(4-chlorophenyl)methyl]-6-oxa-2,9-diazaspiro[4.5]decane] |  |  | 

Second part, the compound before the results:

Structure (SMILES) | IC50 [1] | IC50 [2] | IC50 [3, 5] | IC50 [4, 6] | IC50 [4] | IC50 ([3]; pIC50 DAT)
O=C1CCNC[C@@]12CCN(C(c1ccc(F)cc1)c1ccc(F)cc1)C2 (single isomer, unassigned) [Example 7, (5R or 5S)-2-[bis(4-fluorophenyl)methyl]-2,7-diazaspiro[4.5]decan-10-one] | 14.1 µM | 2.14 µM | 0.162 µM |  |  | 
O=C1CCNC[C@]12CCN(C(c1ccc(F)cc1)c1ccc(F)cc1)C2 (single isomer, unassigned) [Example 8, (5S or 5R)-2-[bis(4-fluorophenyl)methyl]-2,7-diazaspiro[4.5]decan-10-one] | 7.41 µM | 1.38 µM | 0.132 µM |  |  | 
O=C1CCNC[C@@]12CCN(C(c1ccc(F)cc1)c1ccc(F)cc1)C2 (single isomer, unassigned) [Example 9, (5R or 5S)-2-[bis(4-fluorophenyl)methyl]-2,7-diazaspiro[4.5]decan-10-one dihydrochloride salt] | 10.7 µM | 2.4 µM | 0.263 µM | 5.01 µM |  | 
O=C1CCNC[C@]12CCN(C(c1ccc(F)cc1)c1ccc(F)cc1)C2 (single isomer, unassigned) [Example 10, (5S or 5R)-2-[bis(4-fluorophenyl)methyl]-2,7-diazaspiro[4.5]decan-10-one dihydrochloride salt] | 15.5 µM | 6.46 µM | 0.148 µM | 5.01 µM |  | 
ON=C1CCNCC12CCN(C(c1ccc(F)cc1)c1ccc(F)cc1)C2 (single isomer, unassigned) [Example 16, N-[(5S or 5R,10E)-2-[bis(4-fluorophenyl)methyl]-2,7-diazaspiro[4.5]decan-10-ylidene]hydroxylamine] | 6.61 µM | 6.31 µM |  |  | 2.51 µM | 0.049 µM
Fc1ccc(C(c2ccc(F)cc2)N2CC[C@]3(CNCCC3(F)F)C2)cc1 (single isomer, unassigned) [Example 17, (5S or 5R)-2-[bis(4-fluorophenyl)methyl]-10,10-difluoro-2,7-diazaspiro[4.5]decane] | 13.2 µM | 1.07 µM |  |  | 3.16 µM | 0.0229 µM
FC1=CCNC[C@]12CCN(C(c1ccc(F)cc1)c1ccc(F)cc1)C2 (single isomer, unassigned) [Example 18, (5S or 5R)-2-[bis(4-fluorophenyl)methyl]-10-fluoro-2,7-diazaspiro[4.5]dec-9-ene] | 9.33 µM | 1.86 µM |  |  | 3.16 µM | 0.0302 µM
O=C1CCNCC12CCN(C(c1ccc(F)cc1)c1ccc(F)cc1)C2 (stereo not shown) [Example 1, 2-[bis(4-fluorophenyl)methyl]-2,7-diazaspiro[4.5]decan-10-one] | 22.4 µM | 3.8 µM | 0.129 µM |  | 2 µM | 
CN1CCC(=O)C2(CCN(C(c3ccc(F)cc3)c3ccc(F)cc3)C2)C1 (stereo not shown) [Example 2, 2-[bis(4-fluorophenyl)methyl]-7-methyl-2,7-diazaspiro[4.5]decan-10-one] | 21.9 µM | 22.4 µM | 0.372 µM |  | 7.94 µM | 
Fc1ccc(C(c2ccc(F)cc2)N2CCC3(CCNCC34OCCO4)C2)cc1 (stereo not shown) [Example 20, 8-[bis(4-fluorophenyl)methyl]-1,4-dioxa-8,13-diazadispiro[4.0.4^6.4^5]tetradecane] | 2.09 µM | 2 µM |  |  |  | 0.0288 µM
Fc1ccc(C(c2ccc(F)cc2)N2CCC3(CC2)CNCCS3)cc1 [Example 32, 9-[bis(4-fluorophenyl)methyl]-1-thia-4,9-diazaspiro[5.5]undecane] | 2.34 µM | 2.45 µM |  |  |  | 0.0589 µM

Reference: patent US20170260185A1 (priority 2014, published 2017)
